Laboratory results taken from patent publication US11110096B2, “Combination therapies” (Infinity Pharmaceuticals, Inc., priority 2014, dated 2021).

Key:
KARPAS-422 = assay: Combination study Compound 1 + Bcl-2 inhibitor, ATPLite 72 h, follicular lymphoma cell line; format: cell-based; conditions: combination with Compound 1
Text: (§1) The method is described as follows.

RL = assay: as above; format: cell-based; conditions: combination with Compound 1
Text: as §1

Mino = assay: Combination study Compound 1 + Bcl-2 inhibitor, ATPLite 72 h, mantle cell lymphoma cell line; format: cell-based; conditions: combination with Compound 1
Text: The method is described as follows. […] Additive effect is CI=1.0. […] Antagonistic effect is CI>1.0. […] These cell lines include GRANTA-519, Jeko-1 and Mino.

SU-DHL-10-epst = assay: Combination study Compound 1 + Bcl-2 inhibitor, ATPLite 72 h, DLBCL GCB cell line; format: cell-based; conditions: combination with Compound 1
Text: as §1

Farage = assay: as above; format: cell-based; conditions: combination with Compound 1
Text: as §1

OCI-Ly7 = assay: as above; format: cell-based; conditions: combination with Compound 1
Text: as §1

WSU-NHL = assay: Combination study Compound 1 + Bcl-2 inhibitor, ATPLite 72 h, follicular lymphoma cell line; format: cell-based; conditions: combination with Compound 1
Text: (§2) The method is described as follows. […] Additive effect is CI=1.0. […] Antagonistic effect is CI>1.0.

RPMI-8226 = assay: Combination study Compound 1 + Bcl-2 inhibitor, ATPLite 72 h, multiple myeloma cell line; format: cell-based; conditions: combination with Compound 1
Text: (§3) The method is described as follows. […] Additive effect is CI=1.0. […] Antagonistic effect is CI>1.0. […] These cell lines include NCI-H929, OMP-2, and RPMI-8226.

NCI-H929 = assay: as above; format: cell-based; conditions: combination with Compound 1
Text: as §3

OPM-2 = assay: as above; format: cell-based; conditions: combination with Compound 1
Text: as §3

KARPAS-299 = assay: Combination study Compound 1 + Bcl-2 inhibitor, ATPLite 72 h, T-cell lymphoma cell line; format: cell-based; conditions: combination with Compound 1
Text: (§4) The method is described as follows. […] The cell line includes HH and Karpas-299.

HH = assay: as above; format: cell-based; conditions: combination with Compound 1
Text: as §4

DOHH-2 = assay: Combination study Compound 1 + Bcl-2 inhibitor, ATPLite 72 h, DLBCL GCB cell line; format: cell-based; conditions: combination with Compound 1
Text: as §2

SU-DHL-4-epst = assay: as above; format: cell-based; conditions: combination with Compound 1
Text: as §2

OCI-Ly3 = assay: Combination study Compound 1 + Bcl-2 inhibitor, ATPLite 72 h, DLBCL ABC cell line; format: cell-based; conditions: combination with Compound 1
Text: as §1

TMD8 = assay: as above; format: cell-based; conditions: combination with Compound 1
Text: as §1

HBL-1 = assay: as above; format: cell-based; conditions: combination with Compound 1
Text: as §1

U-2932 = assay: as above; format: cell-based; conditions: combination with Compound 1
Text: as §1

Jeko-1 = assay: Combination study Compound 1 + Bcl-2 inhibitor, ATPLite 72 h, mantle cell lymphoma cell line; format: cell-based; conditions: combination with Compound 1
Text: (§5) The method is described as follows. […] These cell lines include GRANTA-519, Jeko-1 and Mino.

GRANTA-519 = assay: as above; format: cell-based; conditions: combination with Compound 1
Text: as §5

Bcl-2 family genes = assay: RNAseq gene expression changes in peripheral blood of Compound 1-treated CLL patients; format: in vivo, human
Method: RNAseq technology was used to measure gene expression changes in peripheral blood in patients treated with Compound 1. The patients were treated as part of a clinical trial (identifier NCT01476657) which is a phase 1 study in patients with advanced hematologic malignancies. Briefly, RNA was extracted from 200 ul of blood using TRI reagent, followed by RNA purification using a Zymo-Spin column. Timepoints were taken at baseline and cycle 1 day 8 (C1D8), which is 7 days of Compound 1 treatment. Expression was quantified using both FPKM and VOOM methods. Filters were used to prioritize genes identified during this analysis.

[1] = system: SU-DHL-4 Compound 1 resistant clones; assay: CTG (CellTiter-Glo) assay, Compound 1 resistant clones; format: cell-based; conditions: Homo sapiens, Cpnd 1 resistant clones
Method: (§6) Experiments were performed to examine the pathway and gene expression alterations in a cell line resistant to PI3K inhibitors. SU-DHL-4 is a DLBCL cell line. […] Five clones from each group were expanded. Cells were harvested for various assays, including CellTiter-Glo® assays, PD, RNA analysis, DNA analysis, and short tandem repeat (STR) fingerprinting.
(§7) Five clones from each group were expanded. Cells were harvested for various assays, including CTG (CellTiter-Glo, Promega, an assay that measures ATP levels as a surrogate for cell number in order to observe cell viability and changes in proliferation rate), PD (pharmacodynamic), RNA analysis, DNA analysis, and short tandem repeat (STR) fingerprinting. […] See, e.g., FIG. 16.

SU-DHL-4 control clones = assay: CTG (CellTiter-Glo) assay, control (DMSO-treated) clones; format: cell-based; conditions: Homo sapiens, read-out: AVG Cpnd 1 IC50
Method: as §6, §7

[2] = system: SU-DHL-4 IBR resistant clones; assay: CTG (CellTiter-Glo) assay, ibrutinib resistant clones; format: cell-based; conditions: Homo sapiens, read-out: AVG Cpnd 1 IC50
Method: as §6

CLL = assay: Compound 1 monotherapy in a patient with CLL (clinical trial); format: in vivo, human; conditions: 25 mg bid monotherapy
Method: A patient diagnosed with CLL was treated by a monotherapy of Compound 1 (25 mg bid) in a clinical trial. Serum samples of the patient were collected at various points in the treatment. The copy number of STK11 in the serum samples was determined by CytoScan (Affymetrix).

[3] = peripheral blood, Compound 1-treated patients, baseline vs C1D8

`CC1(C)CCC(c2ccc(Cl)cc2)=C(CN2CCN(c3ccc(C(=O)NS(=O)(=O)c4ccc(N[C@H](CCN5CCOCC5)CSc5ccccc5)c(S(=O)(=O)C(F)(F)F)c4)cc3)CC2)C1` [ABT-263, (R)-4-(4-((4′-chloro-4,4-dimethyl-3,4,5,6-tetrahydro-[1,1′-biphenyl]-2-yl)methyl)piperazin-1-yl)-N-((4-((4-morpholino-1-(phenylthio)butan-2-yl)amino)-3((trifluoromethyl)sulfonyl)phenyl)sulfonyl)benzamide] was tested, and the CI50 growth inhibition (KARPAS-422) was “S (S=0.1 to <0.5)”, the CI50 inhibition (KARPAS-422) was “T (T=0.5 to <0.7)” and the “Synergy score growth inhibition” value (KARPAS-422) was “A4 (A4=≥10)”. The Synergy score inhibition (KARPAS-422) was “A3 (A3=3 to <10)”, the CI50 growth inhibition (RL) was “U (U=0.7 to <1)” and the CI50 inhibition (RL) was “U (U=0.7 to <1)”. The “Synergy score growth inhibition” value (RL) was “A3 (A3=3 to <10)”, the Synergy score inhibition (RL) was “A1 (A1=0.0001 to <1)” and the CI50 growth inhibition (Mino) was “S (S=0.1 to <0.5)”. The CI50 inhibition (Mino) was “T (T=0.5 to <0.7)”, the “Synergy score growth inhibition” value (Mino) was “A3 (A3=3 to <10)” and the Synergy score inhibition (Mino) was “A2 (A2=1 to <3)”. The CI50 growth inhibition (SU-DHL-10-epst) was “U (U=0.7 to <1)”, the CI50 inhibition (SU-DHL-10-epst) was “U (U=0.7 to <1)” and the “Synergy score growth inhibition” value (SU-DHL-10-epst) was “A3 (A3=3 to <10)”. For the same compound, the Synergy score inhibition (SU-DHL-10-epst) was “A2 (A2=1 to <3)”, the CI50 growth inhibition (Farage) was “T (T=0.5 to <0.7)” and the CI50 inhibition (Farage) was “T (T=0.5 to <0.7)”. The “Synergy score growth inhibition” value (Farage) was “A3 (A3=3 to <10)”, the Synergy score inhibition (Farage) was “A2 (A2=1 to <3)” and the CI50 growth inhibition (OCI-Ly7) was “W (W=≥1)”. For the same compound, the “Synergy score growth inhibition” value (OCI-Ly7) was “A1 (A1=0.0001 to <1)”, the Synergy score inhibition (OCI-Ly7) was “A1 (A1=0.0001 to <1)” and the CI50 growth inhibition (WSU-NHL) was “T (T=0.5 to <0.7)”. For the same compound, the CI50 inhibition (WSU-NHL) was “S (S=0.1 to <0.5)”, the “Synergy score growth inhibition” value (WSU-NHL) was “A4 (A4=≥10)” and the Synergy score inhibition (WSU-NHL) was “A3 (A3=3 to <10)”. For the same compound, the CI50 growth inhibition (RPMI-8226) was “T (T=0.5 to <0.7)”, the CI50 inhibition (RPMI-8226) was “U (U=0.7 to <1)” and the “Synergy score growth inhibition” value (RPMI-8226) was “A3 (A3=3 to <10)”. For the same compound, the Synergy score inhibition (RPMI-8226) was “A2 (A2=1 to <3)”, the CI50 growth inhibition (NCI-H929) was “U (U=0.7 to <1)” and the CI50 inhibition (NCI-H929) was “T (T=0.5 to <0.7)”. For the same compound, the “Synergy score growth inhibition” value (NCI-H929) was “A2 (A2=1 to <3)”, the Synergy score inhibition (NCI-H929) was “A2 (A2=1 to <3)” and the CI50 growth inhibition (OPM-2) was “T (T=0.5 to <0.7)”. The CI50 inhibition (OPM-2) was “U (U=0.7 to <1)”, the “Synergy score growth inhibition” value (OPM-2) was “A3 (A3=3 to <10)” and the Synergy score inhibition (OPM-2) was “A2 (A2=1 to <3)”. The “Synergy score growth inhibition” value (KARPAS-299) was “A1 (A1=0.0001 to <1)”, the Synergy score inhibition (KARPAS-299) was “A1 (A1=0.0001 to <1)” and the CI50 growth inhibition (HH) was “U (U=0.7 to <1)”. For the same compound, the CI50 inhibition (HH) was “S (S=0.1 to <0.5)”, the “Synergy score growth inhibition” value (HH) was “A3 (A3=3 to <10)” and the Synergy score inhibition (HH) was “A2 (A2=1 to <3)”. For the same compound, the CI50 growth inhibition (DOHH-2) was “S (S=0.1 to <0.5)”, the CI50 inhibition (DOHH-2) was “S (S=0.1 to <0.5)” and the “Synergy score growth inhibition” value (DOHH-2) was “A4 (A4=≥10)”. For the same compound, the Synergy score inhibition (DOHH-2) was “A3 (A3=3 to <10)”, the CI50 growth inhibition (SU-DHL-4-epst) was “T (T=0.5 to <0.7)” and the CI50 inhibition (SU-DHL-4-epst) was “S (S=0.1 to <0.5)”. For the same compound, the “Synergy score growth inhibition” value (SU-DHL-4-epst) was “A4 (A4=≥10)”, the Synergy score inhibition (SU-DHL-4-epst) was “A3 (A3=3 to <10)” and the CI50 growth inhibition (OCI-Ly3) was “U (U=0.7 to <1)”. The CI50 inhibition (OCI-Ly3) was “W (W=≥1)”, the “Synergy score growth inhibition” value (OCI-Ly3) was “A3 (A3=3 to <10)” and the Synergy score inhibition (OCI-Ly3) was “A1 (A1=0.0001 to <1)”. For the same compound, the CI50 growth inhibition (TMD8) was “S (S=0.1 to <0.5)”, the CI50 inhibition (TMD8) was “T (T=0.5 to <0.7)” and the “Synergy score growth inhibition” value (TMD8) was “A3 (A3=3 to <10)”. For the same compound, the Synergy score inhibition (TMD8) was “A2 (A2=1 to <3)”, the CI50 growth inhibition (HBL-1) was “S (S=0.1 to <0.5)” and the CI50 inhibition (HBL-1) was “U (U=0.7 to <1)”. For the same compound, the “Synergy score growth inhibition” value (HBL-1) was “A3 (A3=3 to <10)”, the Synergy score inhibition (HBL-1) was “A2 (A2=1 to <3)” and the CI50 growth inhibition (U-2932) was “T (T=0.5 to <0.7)”. The CI50 inhibition (U-2932) was “T (T=0.5 to <0.7)”, the “Synergy score growth inhibition” value (U-2932) was “A3 (A3=3 to <10)” and the Synergy score inhibition (U-2932) was “A2 (A2=1 to <3)”. For the same compound, the CI50 growth inhibition (Jeko-1) was “S (S=0.1 to <0.5)”, the CI50 inhibition (Jeko-1) was “S (S=0.1 to <0.5)” and the “Synergy score growth inhibition” value (Jeko-1) was “A3 (A3=3 to <10)”. The Synergy score inhibition (Jeko-1) was “A3 (A3=3 to <10)”, the CI50 growth inhibition (GRANTA-519) was “S (S=0.1 to <0.5)” and the CI50 inhibition (GRANTA-519) was “W (W=≥1)”. For the same compound, the “Synergy score growth inhibition” value (GRANTA-519) was “A3 (A3=3 to <10)” and the Synergy score inhibition (GRANTA-519) was “A1 (A1=0.0001 to <1)”.

`C[C@H](Nc1ncnc2[nH]cnc12)c1cc2cccc(Cl)c2c(=O)n1-c1ccccc1` [Compound 1, (S)-3-(1-((9H-purin-6-yl)amino)ethyl)-8-chloro-2-phenylisoquinolin-1(2H)-one] was tested, and the “HRK expression level increase” value (Bcl-2 family genes; many of the patients having stable disease or partial remission, after 7 days of Compound 1 treatment, FIG. 7) was “at least 1.5 fold”, the “BBC3 (also called PUMA) gene expression change” value (Bcl-2 family genes; [3]) was “up-regulated” and the “BIK gene expression change” value (Bcl-2 family genes; [3]) was “downregulated”. The “BMF gene expression change” value (Bcl-2 family genes; [3]) was “up-regulated”, the “Bcl2L11 (also called BIM) gene expression change” value (Bcl-2 family genes; [3]) was “up-regulated” and the “Bcl2 gene expression change” value (Bcl-2 family genes; [3]) was “up-regulated”. The “HRK gene expression change” value (Bcl-2 family genes; [3]) was “up-regulated”, the “PMAIP1 (also called NOXA) gene expression change” value (Bcl-2 family genes; [3]) was “up-regulated” and the IC50 [1] was 5420 ± 1080 nM. For the same compound, the IC50 (SU-DHL-4 control clones) was 241 ± 17 nM, the IC50 [2] was 805 ± 339 nM and the patient response (CLL; after C7 (cycle 7)) was “progressed”. The patient response (CLL; at C3D1 (cycle 3, day 1)) was “partial response”.
